Reference: BigSolDB 2.1

Cc1cnc(NC(=O)C2=C(O)c3ccccc3S(=O)(=O)N2C)s1
solubility (mole fraction)
Details	293.15 K	298.15 K	303.15 K	308.15 K	313.15 K
in transcutol	0.0012	0.0013	0.0014	0.00151	0.00165
in water	1.09e-06	1.14e-06	1.19e-06	1.26e-06	1.33e-06
